9 compounds from PubChem BioAssay (NCI) can be followed below.

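48-hour exposure; five concentrations; linearly interpolated endpoints. Here, GI50 denotes the concentration required for 50% inhibition of growth. TGI is the concentration that stops growth completely.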

Some test systems named below: A498 renal; CCRF-CEM leukemia; LOX IMVI melanoma; MOLT-4 leukemia; NCI-H226 lung; NCI-H23 lung; SK-MEL-28 melanoma; T-47D breast; UO-31 renal; RXF 393 renal.
Holding throughout (experiment): NCI-60 cell line screen, 48 h

For the compound `Cc1cn2c(/C=C3\C(=O)N(C)c4ccc(Cl)cc43)c(C)nc2s1`, the GI50 with A498 renal is 10.8 µM; in the experiment on CCRF-CEM leukemia, 2.74 µM; in the experiment with LOX IMVI melanoma, 5.05 µM; with MOLT-4 leukemia, 3.1 µM; with NCI-H226 lung it was 18.5 µM; with NCI-H23 lung, 3.71 µM. Moreover, the results for the GI50 with SK-MEL-28 melanoma, in the experiment on T-47D breast and in the experiment with UO-31 renal were 6.6 µM, greater than 100 µM and 7.18 µM, respectively. Also, the TGI in the experiment on A498 renal is greater than 100 µM; in the experiment with CCRF-CEM leukemia, 10.1 µM; in the experiment on LOX IMVI melanoma, greater than 100 µM; in the experiment on MOLT-4 leukemia, 15.9 µM; with NCI-H226 lung, greater than 100 µM; with NCI-H23 lung, 27.3 µM. Further, the values for the TGI in the experiment with SK-MEL-28 melanoma, in the experiment on T-47D breast and in the experiment on UO-31 renal were greater than 100 µM, greater than 100 µM and 67.1 µM, respectively.
On to `Cc1ccc(/C(=C/C=C(C#N)C#N)Sc2nc3ccccc3s2)cc1`, for which the GI50 is 20.9 µM in the experiment with A498 renal; 0.465 µM in the experiment on CCRF-CEM leukemia; greater than 100 µM with MOLT-4 leukemia; 3.5 µM in the experiment with NCI-H226 lung; 3.36 µM in the experiment on NCI-H23 lung; 3.78 µM in the experiment with RXF 393 renal. The GI50 in the experiment with SK-MEL-28 melanoma was 5.14 µM; with T-47D breast, 5.2 µM; in the experiment on UO-31 renal, 3.41 µM. For the same compound, the TGI was 35.9 µM in the experiment on A498 renal; 3.02 µM in the experiment with CCRF-CEM leukemia; greater than 100 µM in the experiment with MOLT-4 leukemia; 8.01 µM in the experiment with NCI-H226 lung; 11.6 µM with NCI-H23 lung; 13.8 µM in the experiment with RXF 393 renal. For the same compound, the results for the TGI with SK-MEL-28 melanoma, with T-47D breast and in the experiment on UO-31 renal were 23.9 µM, 35.7 µM and 22.5 µM, respectively.
`CCOP(=O)(OCC)C(NC(c1ccccc1)c1ccccc1)c1ccc(C(C)C)cc1` (stereo unspecified): the GI50 is 3.39 µM in the experiment on CCRF-CEM leukemia; 4.33 µM in the experiment on LOX IMVI melanoma; 1.71 µM in the experiment with MOLT-4 leukemia; 6.38 µM in the experiment with NCI-H23 lung; 11.9 µM in the experiment on SK-MEL-28 melanoma; 6.65 µM with T-47D breast. The GI50 in the experiment with UO-31 renal was 7.45 µM. Further, the TGI in the experiment on CCRF-CEM leukemia was 25.5 µM; with LOX IMVI melanoma, 16 µM; in the experiment with MOLT-4 leukemia it was 4.25 µM; with NCI-H23 lung, 20.7 µM; with SK-MEL-28 melanoma, 52 µM; with T-47D breast, 41.3 µM. In addition, the TGI in the experiment with UO-31 renal was determined as 28.9 µM.
With `CCN(CC)CCCC(C)Nc1ccnc(/C=C/c2ccc(Cl)cc2)c1` (stereo unspecified), the results for the GI50 with A498 renal, in the experiment with NCI-H226 lung and in the experiment on RXF 393 renal were 1.62 µM, 2.02 µM and 1.44 µM, respectively. Besides, the TGI is 5.2 µM with A498 renal; greater than 19.7 µM in the experiment on CCRF-CEM leukemia; 3.28 µM in the experiment on LOX IMVI melanoma; 4.97 µM with NCI-H226 lung; 23.7 µM in the experiment on NCI-H23 lung; 2.92 µM with RXF 393 renal. Also, the TGI with SK-MEL-28 melanoma was found to be 3.41 µM; with T-47D breast, 3.59 µM; in the experiment on UO-31 renal it was 3.17 µM.
For the compound `CC[Si](CC)(CC)OC1[C@@H](O[Si](CC)(CC)CC)[C@@H](CNC(=O)NC)O[C@H]1n1cnc2c(NC(=O)Nc3ccccc3)ncnc21` (stereo partly specified), the GI50 is 1.61 µM with A498 renal; 3.02 µM with CCRF-CEM leukemia; 2.61 µM in the experiment on LOX IMVI melanoma; 5.11 µM in the experiment on NCI-H226 lung; 3.64 µM with NCI-H23 lung; 2.36 µM in the experiment with RXF 393 renal. Further, the GI50 in the experiment with SK-MEL-28 melanoma was 4.93 µM; in the experiment with T-47D breast, 4.47 µM; with UO-31 renal, 2.8 µM. For the same compound, the TGI with A498 renal was 6.38 µM; in the experiment with CCRF-CEM leukemia, 9.18 µM; with LOX IMVI melanoma, 7.85 µM; in the experiment with NCI-H226 lung it was greater than 100 µM; in the experiment on NCI-H23 lung it was greater than 100 µM; in the experiment with RXF 393 renal it was 4.67 µM. Further, the TGI with SK-MEL-28 melanoma was greater than 100 µM; in the experiment on T-47D breast, greater than 100 µM; in the experiment on UO-31 renal, 18.1 µM.
With `CCOC(=O)c1ccc(NC(=O)c2cccc(NC3=C(Cl)C(=O)N(Cc4ccccc4)C3=O)c2)cc1`, the GI50 is greater than 100 µM in the experiment with A498 renal; 15.7 µM in the experiment with CCRF-CEM leukemia; 60.3 µM with LOX IMVI melanoma; 28.1 µM in the experiment on MOLT-4 leukemia; greater than 100 µM with NCI-H226 lung; greater than 100 µM with RXF 393 renal. The GI50 in the experiment with SK-MEL-28 melanoma and in the experiment with T-47D breast was greater than 100 µM each time. In addition, the TGI in the experiment with A498 renal was greater than 100 µM; with CCRF-CEM leukemia, 65.9 µM; in the experiment with LOX IMVI melanoma, greater than 100 µM; with MOLT-4 leukemia it was 99.2 µM; in the experiment with NCI-H226 lung, greater than 100 µM; with RXF 393 renal, greater than 100 µM. For the same compound, the TGI in the experiment with SK-MEL-28 melanoma and in the experiment on T-47D breast was greater than 100 µM throughout.
With `O=c1[nH]c2ccccc2n1C1CCN(CCOc2ccccc2)CC1`, the GI50 is 17.1 µM with A498 renal; 15.5 µM with LOX IMVI melanoma; 48 µM in the experiment on MOLT-4 leukemia; 30.1 µM in the experiment with NCI-H226 lung; 30.5 µM in the experiment with NCI-H23 lung; 45 µM in the experiment on RXF 393 renal. The GI50 with SK-MEL-28 melanoma is 47.9 µM; in the experiment on T-47D breast, 15.7 µM; in the experiment on UO-31 renal it was 34.1 µM. Moreover, the TGI in the experiment with A498 renal was 99.6 µM; with LOX IMVI melanoma it was greater than 100 µM; in the experiment with MOLT-4 leukemia, greater than 100 µM; in the experiment with NCI-H226 lung, greater than 100 µM; in the experiment with NCI-H23 lung, greater than 100 µM; in the experiment with RXF 393 renal it was greater than 100 µM. The TGI in the experiment on SK-MEL-28 melanoma, in the experiment with T-47D breast and in the experiment on UO-31 renal was greater than 100 µM each time.
As for `CCOC(=O)c1cc2c(n1Cc1ccccc1OC)-c1oncc1CCC2`, the GI50 in the experiment with A498 renal was 3.46 µM; in the experiment with CCRF-CEM leukemia, 2.87 µM; in the experiment on LOX IMVI melanoma, 7.64 µM; in the experiment on MOLT-4 leukemia, 5.68 µM; in the experiment on NCI-H226 lung, greater than 100 µM; in the experiment with NCI-H23 lung, 8.52 µM. Further, the GI50 was greater than 100 µM in the experiment on SK-MEL-28 melanoma, 2.46 µM in the experiment with T-47D breast and 6.53 µM in the experiment with UO-31 renal. Besides, the TGI in the experiment on A498 renal, with CCRF-CEM leukemia, with LOX IMVI melanoma, in the experiment on MOLT-4 leukemia, in the experiment on NCI-H226 lung and with NCI-H23 lung was greater than 100 µM each time. Besides, the TGI in the experiment on SK-MEL-28 melanoma, in the experiment on T-47D breast and in the experiment on UO-31 renal was greater than 100 µM each time.
`Nc1ncnc2c1ncn2CCCCC(=O)O`: the TGI in the experiment on A498 renal, in the experiment with LOX IMVI melanoma, with MOLT-4 leukemia, with NCI-H226 lung, with NCI-H23 lung and in the experiment on RXF 393 renal was greater than 100 µM in each case. For the same compound, the TGI in the experiment on SK-MEL-28 melanoma, in the experiment on T-47D breast and in the experiment on UO-31 renal was greater than 100 µM throughout.
